The values that follow come from patent publication US12084472B2 (Ardelyx, Inc., priority 2015, dated 2024).

A value given as a limit tells only on which side of the number the result lay.

The test deals with T1, human TGR5 (Homo sapiens, UniProt Q8TDU6).
T1 construct: expressed in transfected cells; host or cells: HEK293
T1 sequence (Q8TDU6 1-330): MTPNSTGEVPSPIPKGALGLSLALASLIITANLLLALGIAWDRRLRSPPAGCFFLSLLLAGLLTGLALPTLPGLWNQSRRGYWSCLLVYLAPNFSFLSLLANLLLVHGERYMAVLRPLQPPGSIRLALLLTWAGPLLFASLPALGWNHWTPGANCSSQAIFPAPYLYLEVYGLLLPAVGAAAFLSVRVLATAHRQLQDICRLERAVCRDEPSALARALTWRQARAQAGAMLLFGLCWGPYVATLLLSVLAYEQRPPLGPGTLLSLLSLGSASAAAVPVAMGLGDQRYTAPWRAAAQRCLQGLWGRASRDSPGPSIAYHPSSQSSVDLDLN
Nature of the test: Cell-based TGR5 assay (cAMP generation, HTRF). The settings on record: HEK293 cells stably transfected with human TGR5; cAMP by HTRF; 30 minutes at 37° C.; read-out: pEC50 Human TGR5 (converted). The gist of the method:
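Read-out was HTRF detection of cAMP, converted to concentration via a standard curve and fitted (3-parameter logistic) for pEC50 and maximal response. Agonist stimulation used HEK293 cells stably transfected with human TGR5, incubated 30 min at 37° C in IBMX-containing buffer at 0.05 nM to 10 μM compound.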
On the technique in general: TR-FRET usually uses a lanthanide donor and a delayed reading to cut background.
As for `CC(CCCN(C)C(=O)[C@@H](O)[C@@H](O)[C@H](O)[C@@H](O)CO)c1ccc(Cl)c(CNC2(c3cnccc3-c3ccccc3OC3CC3)CC2)c1` (stereo partly drawn) [Compound I-258, (2S,3S,4R,5S)-N-(4-[4-chloro-3-[([1-[4-(2-cyclopropoxyphenyl)pyridin-3-yl]cyclopropyl]amino)methyl]phenyl]pentyl)-2,3,4,5,6-pentahydroxy-N-methylhexanamide], the EC50 is under 100 nM.

With `Cc1ccc(C(C)CCCC(=O)N(Cc2ccccc2)C[C@H](O)[C@@H](O)[C@H](O)[C@H](O)CO)cc1CNC1(c2cnccc2-c2ccccc2OC2CC2)CC1` (stereo partly drawn) [Compound I-259, N-benzyl-5-(3-(((1-(4-(2-cyclopropoxyphenyl)pyridin-3-yl)cyclopropyl)amino)methyl)-4-methylphenyl)-N-((2S,3R,4R,5R)-2,3,4,5,6-pentahydroxyhexyl) hexanamide], the EC50 is under 100 nM.

Turning to `CC(CCCC(=O)NC[C@H](O)[C@@H](O)[C@H](O)[C@H](O)CO)c1cc(Cl)c(CNC2(c3cnccc3-c3ccccc3OC3CC3)CC2)cc1Cl` (stereo partly drawn) [Compound I-260, 5-[2,5-dichloro-4-[([1-[4-(2-cyclopropoxyphenyl)pyridin-3-yl]cyclopropyl]amino)methyl]phenyl]-N-[(2S,3R,4R,5R)-2,3,4,5,6-pentahydroxyhexyl]hexanamide], the EC50 was under 100 nM.

Regarding `CC(CCCC(=O)N(CCCCCO)C[C@H](O)[C@@H](O)[C@H](O)[C@H](O)CO)c1ccc(Cl)c(CNC2(c3cnccc3-c3ccccc3OC3CC3)CC2)c1` (stereo partly drawn) [Compound I-261, 5-(4-chloro-3-(((1-(4-(2-cyclopropoxyphenyl)pyridin-3-yl)cyclopropyl)amino)methyl)phenyl)-N-(5-hydroxypentyl)-N-((2S,3R,4R,5R)-2,3,4,5,6-pentahydroxyhexyl) hexanamide], the EC50 was under 100 nM.

`CC(CCCC(=O)N(CCS(=O)(=O)N1CCOCC1)C[C@H](O)[C@@H](O)[C@H](O)[C@H](O)CO)c1ccc(Cl)c(CNC2(c3cnccc3-c3ccccc3OC3CC3)CC2)c1` (stereo partly drawn) [Compound I-262, 5-(4-chloro-3-(((1-(4-(2-cyclopropoxyphenyl)pyridin-3-yl)cyclopropyl)amino)methyl)phenyl)-N-(2-(morpholinosulfonyl)ethyl)-N-((2S,3R,4R,5R)-2,3,4,5,6-pentahydroxyhexyl)hexanamide]: the EC50 is under 100 nM.

Turning to `C[C@@H](CCCCNC(=O)N[C@@H](CO)[C@@H](O)[C@H](O)[C@H](O)CO)c1ccc(Cl)c(COC2(c3cnccc3-c3ccccc3OC3CC3)CC2)c1` [Compound I-263], the EC50 was under 100 nM.

`CC(CCCNC(=O)NC[C@H](O)[C@@H](O)[C@H](O)[C@H](O)CO)c1ccc(Cl)c(CNC2(c3cnccc3-c3ccccc3OC3CC3)CC2)c1` (stereo partly drawn) [Compound I-265, 1-(4-{4-chloro-3-[({1-[4-(2-cyclopropoxyphenyl)pyridin-3-yl]cyclopropyl}amino)methyl]phenyl}pentyl)-3-[(2S,3R,4R,5R)-2,3,4,5,6-pentahydroxyhexyl]urea]: the EC50 was under 100 nM.

With `CC(CCCCNC(=O)N[C@@H](CO)[C@@H](O)[C@H](O)[C@H](O)CO)c1ccc(Cl)c(CNC2(c3cnccc3-c3ccccc3OC3CC3)CC2)c1` (stereo partly drawn) [Compound I-266, 1-(5-{4-chloro-3-[({1-[4-(2-cyclopropoxyphenyl)pyridin-3-yl]cyclopropyl}amino)methyl]phenyl}hexyl)-3-[(2S,3R,4S,5R)-1,3,4,5,6-pentahydroxyhexan-2-yl]urea], the EC50 is under 100 nM.

Consider `CC(CCCCNC(=O)NC[C@H](O)[C@@H](O)[C@H](O)[C@H](O)CO)c1ccc(Cl)c(CNC2(c3cnccc3-c3ccccc3OC3CC3)CC2)c1` (stereo partly drawn) [Compound I-267, 1-(5-{4-chloro-3-[({1-[4-(2-cyclopropoxyphenyl)pyridin-3-yl]cyclopropyl}amino)methyl]phenyl}hexyl)-3-[(2S,3R,4R,5R)-2,3,4,5,6-pentahydroxyhexyl]urea], for which the EC50 was under 100 nM.

With `CC(CCCCCNC(=O)NC[C@H](O)[C@@H](O)[C@H](O)[C@H](O)CO)c1ccc(Cl)c(CNC2(c3cnccc3-c3ccccc3OC3CC3)CC2)c1` (stereo partly drawn) [Compound I-268, 1-(6-{4-chloro-3-[({1-[4-(2-cyclopropoxyphenyl)pyridin-3-yl]cyclopropyl}amino)methyl]phenyl}heptyl)-3-[(2S,3R,4R,5R)-2,3,4,5,6-pentahydroxyhexyl]urea], the EC50 was under 100 nM.

Consider `CC(CCCCN(C)C(=O)NC[C@H](O)[C@@H](O)[C@H](O)[C@H](O)CO)c1ccc(Cl)c(CNC2(c3cnccc3-c3ccccc3OC3CC3)CC2)c1` (stereo partly drawn) [Compound I-269, 1-(5-{4-chloro-3-[({1-[4-(2-cyclopropoxyphenyl)pyridin-3-yl]cyclopropyl}amino)methyl]phenyl}hexyl)-1-methyl-3-[(2S,3R,4R,5R)-2,3,4,5,6-pentahydroxyhexyl]urea], for which the EC50 was under 100 nM.

`CC(CCCCN(CCOCCO)C(=O)NC[C@H](O)[C@@H](O)[C@H](O)[C@H](O)CO)c1ccc(Cl)c(CNC2(c3cnccc3-c3ccccc3OC3CC3)CC2)c1` (stereo partly drawn) [Compound I-270, 1-(5-{4-chloro-3-[({1-[4-(2-cyclopropoxyphenyl)pyridin-3-yl]cyclopropyl}amino)methyl]phenyl}hexyl)-1-[2-(2-hydroxyethoxy)ethyl]-3-[(2S,3R,4R,5R)-2,3,4,5,6-pentahydroxyhexyl]urea]: the EC50 was under 100 nM.

`Cc1ccc(C(C)CCCNC(=O)NC[C@H](O)[C@@H](O)[C@H](O)[C@H](O)CO)cc1CNC1(c2cnccc2-c2ccccc2OC2CC2)CC1` (stereo partly drawn) [Compound I-271, 1-(4-{3-[({l-[4-(2-cyclopropoxyphenyl)pyridin-3-yl]cyclopropyl}amino)methyl]-4-methylphenyl}pentyl)-3-[(2S,3R,4R,5R)-2,3,4,5,6-pentahydroxyhexyl]urea]: the EC50 was under 100 nM.

For the compound `Cc1ccc(C(C)CCCCNC(=O)NC[C@H](O)[C@@H](O)[C@H](O)[C@H](O)CO)cc1CNC1(c2cnccc2-c2ccccc2OC2CC2)CC1` (stereo partly drawn) [Compound I-272, 1-(5-{3-[({1-[4-(2-cyclopropoxyphenyl)pyridin-3-yl]cyclopropyl}amino)methyl]-4-methylphenyl}hexyl)-3-[(2S,3R,4R,5R)-2,3,4,5,6-pentahydroxyhexyl]urea], the EC50 is under 100 nM.

Regarding `CC(CCCCNC(=O)NC[C@H](O)[C@@H](O)[C@H](O)[C@H](O)CO)c1ccc(Cl)c(COC2(c3cnccc3-c3ccccc3OC3CC3)CC2)c1` (stereo partly drawn) [Compound I-275, 1-{5-[4-chloro-3-({1-[4-(2-cyclopropoxyphenyl)pyridin-3-yl]cyclopropoxy}methyl)phenyl]hexyl}-3-[(2S,3R,4R,5R)-2,3,4,5,6-pentahydroxyhexyl]urea], the EC50 is under 100 nM.

Regarding `Cc1ccc(C(C)CCCCNC(=O)NC[C@H](O)[C@@H](O)[C@H](O)[C@H](O)CO)cc1COC1(c2cnccc2-c2ccccc2OC2CC2)CC1` (stereo partly drawn) [Compound I-276, 1-{5-[3-({1-[4-(2-cyclopropoxyphenyl)pyridin-3-yl]cyclopropoxy}methyl)-4-methylphenyl]hexyl}-3-[(2S,3R,4R,5R)-2,3,4,5,6-pentahydroxyhexyl]urea], the EC50 was under 100 nM.

With `CC(CCCN(CCN1CCNC1=O)C(=O)[C@@H](O)[C@@H](O)[C@H](O)[C@@H](O)CO)c1ccc(Cl)c(CNC2(c3cnccc3-c3ccccc3OC3CC3)CC2)c1` (stereo partly drawn) [Compound I-277, (2S,3S,4R,5S)-N-(4-{4-chloro-3-[({1-[4-(2-cyclopropoxyphenyl)pyridin-3-yl]cyclopropyl}amino)methyl]phenyl}pentyl)-2,3,4,5,6-pentahydroxy-N-[2-(2-oxoimidazolidin-1-yl)ethyl]hexanamide], the EC50 is 126 to 1000 nM.

Consider `CC(CCCNC(=O)[C@@H](O)[C@@H](O)[C@H](O)[C@@H](O)CO)c1ccc(Cl)c(CNC2(c3cnccc3-c3ccccc3OC3CC3)CC2)c1` (stereo partly drawn) [Compound I-278, (2S,3S,4R,5S)-N-(4-{4-chloro-3-[({1-[4-(2-cyclopropoxyphenyl)pyridin-3-yl]cyclopropyl}amino)methyl]phenyl}pentyl)-2,3,4,5,6-pentahydroxyhexanamide], for which the EC50 was under 100 nM.

As to `CC(CCCCNC(=O)[C@@H](O)[C@@H](O)[C@H](O)[C@@H](O)CO)c1ccc(Cl)c(CNC2(c3cnccc3-c3ccccc3OC3CC3)CC2)c1` (stereo partly drawn) [Compound I-279, (2S,3S,4R,5S)-N-(5-{4-chloro-3-[({1-[4-(2-cyclopropoxyphenyl)pyridin-3-yl]cyclopropyl}amino)methyl]phenyl}hexyl)-2,3,4,5,6-pentahydroxyhexanamide], the EC50 was under 100 nM.

For `CC(CCCCCNC(=O)[C@@H](O)[C@@H](O)[C@H](O)[C@@H](O)CO)c1ccc(Cl)c(CNC2(c3cnccc3-c3ccccc3OC3CC3)CC2)c1` (stereo partly drawn) [Compound I-280, (2S,3S,4R,5S)-N-(6-{4-chloro-3-[({1-[4-(2-cyclopropoxyphenyl)pyridin-3-yl]cyclopropyl}amino)methyl]phenyl}heptyl)-2,3,4,5,6-pentahydroxyhexanamide], the EC50 was under 100 nM.

As to `CC(CCCCN(C)C(=O)[C@@H](O)[C@@H](O)[C@H](O)[C@@H](O)CO)c1ccc(Cl)c(CNC2(c3cnccc3-c3ccccc3OC3CC3)CC2)c1` (stereo partly drawn) [Compound I-281, (2S,3S,4R,5S)-N-(5-{4-chloro-3-[({1-[4-(2-cyclopropoxyphenyl)pyridin-3-yl]cyclopropyl}amino)methyl]phenyl}hexyl)-2,3,4,5,6-pentahydroxy-N-methylhexanamide], the EC50 is under 100 nM.
